Data on 30 molecules can be found in US9840482B2, “Sulfonamide derivatives and pharmaceutical applications thereof” (Sunshine Lake Pharma Co., Ltd., priority 2014, dated 2017).

The target in one data set is T1, human 5-HT6 receptor (Homo sapiens, UniProt P50406).
T1 construct: expressed in transfected cells; host or cells: CHO cells (membrane preparation)
T1 sequence (P50406 whole entry): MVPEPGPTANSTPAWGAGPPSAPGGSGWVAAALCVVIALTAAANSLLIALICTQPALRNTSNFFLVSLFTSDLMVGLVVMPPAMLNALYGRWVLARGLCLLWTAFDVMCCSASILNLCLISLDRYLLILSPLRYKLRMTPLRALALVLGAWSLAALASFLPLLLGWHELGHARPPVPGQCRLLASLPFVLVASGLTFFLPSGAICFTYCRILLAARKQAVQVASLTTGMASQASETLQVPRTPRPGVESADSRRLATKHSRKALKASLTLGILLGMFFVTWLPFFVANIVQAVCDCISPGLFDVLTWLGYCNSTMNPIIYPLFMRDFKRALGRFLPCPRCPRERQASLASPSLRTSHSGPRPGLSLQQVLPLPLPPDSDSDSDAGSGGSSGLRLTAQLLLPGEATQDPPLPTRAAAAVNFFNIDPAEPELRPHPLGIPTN
Briefly: Radioligand binding assay ([3H]LSD) on membranes of CHO cells expressing human 5-HT6 receptor. The following applies: human 5-HT6 receptor expressed in CHO cell, 2 nM [3H]LSD, 37° C., 120 min. How it is done:
The binding affinities of the compounds of this invention to human 5-HT6 receptor expressed in CHO cell were evaluated by radioligand binding assay in this example. Briefly, for each compound of the present invention, the binding affinity thereof was tested through the following steps:
32 μg membrane proteins of CHO cell expressing human 5-HT6 receptor, 2 nM of radioactive marker [3H]LSD, a compound of the present invention having different test concentrations, 100 μM 5-HT (5-HT was used to eliminate nonspecific binding sites) and a buffer solution were mixed uniformly. Then the resulting mixture was incubated at 37° C. for 120 min, in which the buffer solution was comprised of 50 mM Tris-HC1 (pH 7.4), 10 mM MgCl2, 0.5 mM EDTA, 10 μM pargyline and 20 mg/L protease inhibitor.
After incubation, the resluting mixture was filtered by a fiberglass filter in vacuo (GF/B, Packard), and the filter membrane of the fiberglass filter was preimpregnated with 0.3% PEI before the filtering and washed with 50 mM of Tris-HC1 for several times after the filtering. After the filter membrane was dried, and the radioactivity of filter membrane was determined by liquid scintillation counting by using a scintillometer (Topcount, Packard). The reference standard was 5-HT, and IC50 values were calculated by competitive inhibition curves plotted based on several inhibition ratios and the corresponding compound concentrations.
The term IC50 denotes the concentration at which inhibition is half-maximal. Regarding `COc1ccc2cccc(C3(CNS(=O)(=O)c4ccc(OC)c(N5CCN(C)CC5)c4)CC3)c2c1` [Example 28, 4-Methoxy-N-((1-(7-methoxynaphthalen-1-yl)cyclopropyl)methyl)-3-(4-methylpiperazin-1-yl) benzenesulfonamide], the IC50 stood at 2.1 nM.

For the molecule `COc1ccc(S(=O)(=O)NCCc2cccc3c(OC)cccc23)cc1N1CCN(C)CC1` [Example 4, 4-Methoxy-N-(2-(5-methoxynaphthalen-1-yl)ethyl)-3-(4-methylpiperazin-1-yl) benzenesulfonamide], the IC50 stood at 11 nM.

For `COc1ccc(S(=O)(=O)NCC2(c3cccc4cc(F)ccc34)CC2)cc1N1CCNCC1` [Example 25, N-((1-(6-fFluoronaphthalen-1-yl)cyclopropyl)methyl)-4-methoxy-3-(piperazin-1-yl) benzenesulfonamide], the IC50 amounted to 16 nM.

The molecule `COc1ccc(S(=O)(=O)NCCc2cccc3cc(F)ccc23)cc1N1CCN(C)CC1` [Example 6] showed an IC50 of 1.3 nM.

Regarding `COc1ccc(S(=O)(=O)NCCc2cccc3cc(F)ccc23)cc1N1CCNCC1` [Example 5], the concentration for half-maximal inhibition (IC50) is 4.1 nM.

In turn, `COc1ccc2cccc(C(C)(C)CNS(=O)(=O)c3ccc(OC)c(N4CCNCC4)c3)c2c1` [Example 17, 4-Methoxy-N-(2-(7-methoxynaphthalen-1-yl)-2-methylpropyl)-3-(piperazin-1-yl)benzene sulfonamide] gave an IC50 of 1.1 nM.

As to `COc1ccc(S(=O)(=O)NCCc2cccc3ccc(Br)cc23)cc1N1CCNCC1` [Example 11, N-(2-(7-Bromonaphthalen-1-yl)ethyl)-4-methoxy-3-(piperazin-1-yl) benzenesulfonamide], the IC50 was determined as 2.1 nM.

As to `COc1ccc(S(=O)(=O)NCC2(c3cccc4cc(F)ccc34)CC2)cc1N1CCN(C)CC1` [Example 26, N-((1-(6-Fluoronaphthalen-1-yl)cyclopropyl)methyl)-4-methoxy-3-(4-methylpiperazin-1-yl) benzenesulfonamide], the IC50 stood at 3.2 nM.

For `COc1ccc2cccc(C(C)(C)CNS(=O)(=O)c3ccc(OC)c(N4CCN(C)CC4)c3)c2c1` [Example 18, 4-Methoxy-N-(2-(7-methoxynaphthalen-1-yl)-2-methylpropyl)-3-(4-methylpiperazin-1-yl) benzenesulfonamide], the IC50 was 1.4 nM.

Molecule `COc1ccc(S(=O)(=O)NCCc2cccc3ccc(F)cc23)cc1N1CCNCC1` [Example 9] registered an IC50 of 0.69 nM.

For the molecule `COc1ccc2cccc(C3(CNS(=O)(=O)c4ccc(OC)c(N5CCNCC5)c4)CC3)c2c1` [Example 27, 4-Methoxy-N-((1-(7-methoxynaphthalen-1-v1)cyclopropyl)methyl)-3-(piperazin-1-yl) benzenesulfonamide], the IC50 was determined as 5 nM.

In turn, `COc1ccc(S(=O)(=O)NCC2(c3cccc4ccc(Br)cc34)CC2)cc1N1CCNCC1` [Example 31] returned an IC50 of 1.2 nM.

`COc1ccc(S(=O)(=O)NCCc2ccc(OC)c3ccccc23)cc1N1CCN(C)CC1` [Example 34] returned an IC50 of 2.6 nM.

Regarding `COc1ccc(S(=O)(=O)NCC2(c3cccc4ccccc34)CC2)cc1N1CCNCC1` [Example 23, 4-Methoxy-N-((1-(naphthalen-1-yl)cyclopropyl)methyl)-3-(piperazin-1-yl) benzenesulfonamide], the IC50 amounted to 3.7 nM.

`COc1ccc2cccc(CCNS(=O)(=O)c3ccc(OC)c(N4CCN(C)CC4)c3)c2c1` [Example 8]: the IC50 is 0.5 nM.

`COc1ccc2cccc(CCNS(=O)(=O)c3ccc(OC)c(N4CCNCC4)c3)c2c1` [Example 7, 4-Methoxy-N-(2-(7-methoxynaphthalen-1-yl)ethyl)-3-(piperazin-1-yl) benzenesulfonamide] registered an IC50 of 1 nM.

Take `COc1ccc(S(=O)(=O)NCC2(c3cccc4ccc(F)cc34)CC2)cc1N1CCNCC1` [Example 29]: the IC50 was found to be 2.3 nM.

For `COc1ccc(S(=O)(=O)NCCc2cccc3ccccc23)cc1N1CCNCC1` [Example 1], the IC50 worked out at 2.7 nM.

Turning to `COc1ccc(S(=O)(=O)NCCc2cccc3ccccc23)cc1N1CCN(C)CC1` [Example 2], the IC50 was 0.92 nM.

`COc1ccc(S(=O)(=O)NCCc2ccc(OC)c3ccccc23)cc1N1CCNCC1` [Example 33, 4-Methoxy-N-(2-(4-methoxynaphthalen-1-yl)ethyl)-3-(piperazin-1-yl) benzenesulfonamide] displayed an IC50 of 5.5 nM.

Take `COc1ccc(S(=O)(=O)NCCc2cccc3ccc(F)cc23)cc1N1CCN(C)CC1` [Example 10]: the IC50 was 0.28 nM.

On to `COc1ccc(S(=O)(=O)NCCc2cccc3ccc(Br)cc23)cc1N1CCN(C)CC1` [Example 12, N-(2-(7-Bromonaphthalen-1-yl)ethyl)-4-methoxy-3-(4-methylpiperazin-1-yl) benzene sulfonamide], for which the IC50 turned out to be 0.17 nM.

For `COc1ccc(S(=O)(=O)NCC(C)(C)c2cccc3ccccc23)cc1N1CCNCC1` [Example 13, 4-Methoxy-N-(2-methyl-2-(naphthalen-1-yl)propyl)-3-(piperazin-1-yl) benzenesulfonamide], the IC50 amounted to 1.3 nM.

`COc1ccc(S(=O)(=O)NCC2(c3cccc4ccccc34)CC2)cc1N1CCN(C)CC1` [Example 24, 4-Methoxy-3-(4-methylpiperazin-1-yl)-N-((1-(naphthalen-1-yl)cyclopropyl)methyl) benzenesulfonamide] gave an IC50 of 2 nM.

As for `COc1ccc(S(=O)(=O)NCCc2ccc(F)c3ccccc23)cc1N1CCNCC1` [Example 35], the IC50 is 1.6 nM.

Turning to `COc1ccc(S(=O)(=O)NCC(C)(C)c2cccc3ccc(Br)cc23)cc1N1CCN(C)CC1` [Example 22, N-(2-(7-Bromonaphthalen-1-yl)-2-methylpropyl)-4-methoxy-3-(4-methylpiperazin-1-yl) benzenesulfonamide], the IC50 stood at 0.31 nM.

In the case of `COc1ccc(S(=O)(=O)NCCc2cccc3c(OC)cccc23)cc1N1CCNCC1` [Example 3, 4-Methoxy-N-(2-(5-methoxynaphthalen-1-yl)ethyl)-3-(piperazin-1-yl) benzenesulfonamide], the IC50 came out at 31 nM.

In turn, `COc1ccc(S(=O)(=O)NCCc2ccc(F)c3ccccc23)cc1N1CCN(C)CC1` [Example 36] returned an IC50 of 0.46 nM.

`COc1ccc(S(=O)(=O)NCC(C)(C)c2cccc3ccc(Br)cc23)cc1N1CCNCC1` [Example 21, N-(2-(7-Bromonaphthalen-1-yl)-2-methylpropyl)-4-methoxy-3-(piperazin-1-yl) benzenesulfonamide] showed an IC50 of 1.7 nM.

`COc1ccc(S(=O)(=O)NCC(C)(C)c2cccc3cc(F)ccc23)cc1N1CCNCC1` [Example 15, N-(2-(6-fluoronaphthalen-1-yl)-2-methylpropyl)-4-methoxy-3-(piperazin-1-yl)benzene sulfonamide] showed an IC50 of 11 nM.

Test system in another data set: not listed separately
Briefly: Pharmacokinetic evaluation after intravenous or gavage administration to dogs. Type of data set: in vivo, Beagle dogs. The following applies: by gavage, 5 mg/kg. The method, then:
The LC/MS/MS system for the analysis comprised an Agilent 1200 Series Vacuum Degasser, binary syringe pumps, a well-plate autosampler, a column oven and an Agilent G6430A Triple Quadrupole Mass Spectrometer equiped with an electrospray ionization (ESI) source, Quantitative analysis was performed in the MRM mode and the conversion parameters of MRM were listed in Table 3:
Analysis was performed on waters)(Bridge C18 (2.1×50 mm, […] column, and 5 μL of sample was injected). Conditions of the analysis comprised: a mobile phase consisted of mobile phase A (water, 2 mM ammonium formate and 0.1% formic acid) and mobile phase B (methanol, 2 mM ammonium formate and 0.1% formic acid), the flow rate was 0.4 mL/min, and the conditions of gradient elution were listed in Table 4: […]
In vivo pharmacokinetic assays in dogs of the compounds disclosed herein were performed by the following steps.
Experiments were divided into two groups, one group was performed through intravenous drug delivery, and the other group was performed by gavage. The compounds disclosed herein were administered in form of a saline solution containing 5% DMSO, 5% Kolliphor HS 15, 2% (2% HC1) and 88% Saline, or the solution containing 10% DMSO, 10% Kolliphor HS 15 and 80% physiological saline. […]
For the molecule `COc1ccc(S(=O)(=O)NCC(C)(C)c2cccc3ccccc23)cc1N1CCNCC1` [Example 13, 4-Methoxy-N-(2-methyl-2-(naphthalen-1-yl)propyl)-3-(piperazin-1-yl) benzenesulfonamide], the “area under the plasma concentration vs time curve (AUClast)” value is listed as “more than 15000 h*ng/mL”.
